Experimental data published in patent US8933105B2, “Pyrrole compounds” (Takeda Pharmaceutical Company Limited, priority 2007, dated 2015).
Counter-ions that a name gives are not always drawn.

What was measured:
[1] = target: T1, proton, potassium-adenosine triphosphatase (H+,K+-ATPase) (Sus scrofa, UniProt P19156); assay: Proton potassium-adenosine triphosphatase (H+,K+-ATPase) inhibitory activity test; type: biochemical; settings: swine gastric microsomal fraction, pH 6.5, 37° C.
T1 construct: a gastric mucous membrane microsomal fraction was prepared from the stomach of swine; from tissue; host or cells: swine stomach, gastric mucous membrane microsomal fraction
T1 sequence (P19156 2-1034 limits assumed): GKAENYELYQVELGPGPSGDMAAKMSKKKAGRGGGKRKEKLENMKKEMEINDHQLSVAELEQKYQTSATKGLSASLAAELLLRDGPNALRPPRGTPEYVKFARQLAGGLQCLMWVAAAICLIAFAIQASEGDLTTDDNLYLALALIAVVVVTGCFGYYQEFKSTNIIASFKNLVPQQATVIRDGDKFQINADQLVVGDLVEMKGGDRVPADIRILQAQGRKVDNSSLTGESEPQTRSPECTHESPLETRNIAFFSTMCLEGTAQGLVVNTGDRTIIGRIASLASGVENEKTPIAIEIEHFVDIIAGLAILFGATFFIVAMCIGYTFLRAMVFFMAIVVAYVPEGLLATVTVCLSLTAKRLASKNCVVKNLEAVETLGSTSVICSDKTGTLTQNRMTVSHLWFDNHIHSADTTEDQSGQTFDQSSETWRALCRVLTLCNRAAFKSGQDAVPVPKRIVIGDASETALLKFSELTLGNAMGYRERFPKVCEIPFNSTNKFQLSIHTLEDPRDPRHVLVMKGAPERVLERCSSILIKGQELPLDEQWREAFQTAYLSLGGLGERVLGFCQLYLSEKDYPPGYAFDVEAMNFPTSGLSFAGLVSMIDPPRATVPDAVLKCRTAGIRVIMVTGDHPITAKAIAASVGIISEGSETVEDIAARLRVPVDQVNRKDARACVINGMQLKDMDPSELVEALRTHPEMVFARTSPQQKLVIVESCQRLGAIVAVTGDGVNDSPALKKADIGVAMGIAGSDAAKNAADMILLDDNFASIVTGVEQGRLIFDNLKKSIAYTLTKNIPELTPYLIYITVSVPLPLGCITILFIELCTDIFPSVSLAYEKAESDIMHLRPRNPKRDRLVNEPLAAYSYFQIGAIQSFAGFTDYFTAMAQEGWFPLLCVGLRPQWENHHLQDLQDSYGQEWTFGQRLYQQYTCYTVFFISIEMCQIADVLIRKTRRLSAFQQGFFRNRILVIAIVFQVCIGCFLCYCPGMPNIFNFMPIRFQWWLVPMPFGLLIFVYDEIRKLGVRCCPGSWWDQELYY
T1 sequence (P18434 whole entry partner): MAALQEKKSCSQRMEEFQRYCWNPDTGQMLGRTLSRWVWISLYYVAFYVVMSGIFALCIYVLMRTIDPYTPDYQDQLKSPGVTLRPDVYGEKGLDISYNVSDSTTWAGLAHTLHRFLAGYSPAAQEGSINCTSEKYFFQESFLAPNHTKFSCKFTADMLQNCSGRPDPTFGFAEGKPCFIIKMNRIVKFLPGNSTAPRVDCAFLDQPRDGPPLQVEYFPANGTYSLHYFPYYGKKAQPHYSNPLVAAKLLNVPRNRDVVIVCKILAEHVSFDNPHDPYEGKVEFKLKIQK
Protocol: Proton Potassium-Adenosine Triphosphatase (H^+,K^+-ATPase) Inhibitory Activity Test
According to the method [Biochim. Biophys. Acta, 728, 31 (1983)] of Wallmark et al., a gastric mucous membrane microsomal fraction was prepared from the stomach of swine. First, the stomach was removed, washed with tap water, immersed in 3 mol/L brine, and the surface of the mucous membrane was wiped with a paper towel. The gastric mucous membrane was detached, chopped, and homogenized in a 0.25 mol/L saccharose solution (pH 6.8) containing 1 mmol/L EDTA and 10 mmol/L tris-hydrochloric acid using polytron (Kinematica). The obtained homogenate was centrifuged at 20,000×g for 30 min and the supernatant was centrifuged at 100,000×g for 90 min. The precipitate was suspended in 0.25 mol/L saccharose solution, superimposed on a 0.25 mol/L saccharose solution containing 7.5% Ficoll, and centrifuged at 100,000×g for 5 hr. The fraction containing the interface between the both layers was recovered, and centrifugally washed with 0.25 mol/L saccharose solution.
The obtained microsomal fraction was used as a proton, potassium-adenosine triphosphatase standard product.
To 40 μL of a 50 mmol/L HEPES-tris buffer (5 mmol/L magnesium chloride, 10 mmol/L potassium chloride, 10 μmol/L valinomycin, pH=6.5) containing 2.5 μg/mL (based on the protein concentration) of the enzyme standard product was added a test compound (5 μL) dissolved in a 10% aqueous dimethyl sulfoxide solution, and the mixture was incubated at 37° C. for 30 min. The enzyme reaction was started by adding 5 μL of a 2 mmol/L adenosine triphosphate tris salt solution (50 mmol/L HEPES-tris buffer (5 mmol/L magnesium chloride, pH 6.5)). The enzyme reaction was carried out at 37° C. for 20 min, and 15 μL of a malachite green solution (0.12% malachite green solution in sulfuric acid (2.5 mol/L), 7.5% ammonium molybdate and 11% Tween 20 were mixed at a ratio of 100:25:2) was added to quench the reaction. After allowing to stand at room temperature for 15 min, the resulting reaction product of inorganic phosphorus with malachite green was calorimetrically determined at a wavelength of 610 nm. In addition, the amount of the inorganic phosphoric acid in the reaction solution free of potassium chloride was measured in the same manner, which was subtracted from the inorganic phosphoric acid amount in the presence of potassium chloride to determine the proton, potassium-adenosine triphosphatase activity. The inhibitory rate (%) was determined from the activity value of the control and the activity values of various concentrations of the test compound, and the 50% inhibitory concentration (IC50) of the proton, potassium-adenosine triphosphatase was determined.

[2] = system: HepG2; assay: ATP content test (intracellular ATP content, ATPLite); type: cell-based, Human; settings: HepG2, 30 μM, culture for one day, relative value to control (without addition of drug)
Protocol: (§1) Human liver cancer-derived cell line HepG2 (ATCC No. HB-8065) was passaged using Dulbecco's Modified Eagle medium (DMEM; Invitrogen) containing 10% fetal bovine serum (FBS; TRACE SCIENTIFIC LTD.), 1 mmol/L sodium pyruvate (Invitrogen), 2 mmol/L L-glutamine (Invitrogen), 50 IU/mL penicillin (Invitrogen) and 50 μg/mL streptomycin (Invitrogen) at 5% CO2, 37° C. The test reagent was prepared with DMSO to 10 mM, and further diluted with DMEM medium containing 0.5% FBS, 1 mmol/L sodium pyruvate, 2 mmol/L L-glutamine, 50 IU/mL penicillin and 50 μg/mL streptomycin to a final concentration of DMSO of 0.1%. HepG2 (2×10^4 cells/well) was cultured on a 96 well white plate (Costar) with the test reagent at 5% CO2, 37° C. After culture for one day, the intracellular ATP content was measured using ATPLite™ (PerkinElmer Life Sciences). The results are shown in Table 26 (n≧3, average value±SD) as a relative value (%) to control (without addition of drug) at 30 μM.

[3] = system: Caspase-3/7; assay: Caspase-3/7 activity test (Caspase-Glo 3/7 Assay); type: cell-based, Human; settings: HepG2, 30 μM, culture for one day, relative to maximum with Staurosporine (100%) and no test reagent (0%)
Protocol: as §1
Caspase-3/7 Activity Test
The Caspase-3/7 activity in the cells cultured for one day by a method similar to that in Experimental Example 2 was measured using Caspase-Glo 3/7 Assay (Promega). The results are shown in Table 26 (n≧3, average value±SD) as relative activity (%) of each reagent based on the maximum value of Caspase-3/7 activity when exposed to Staurosporine (100%), and the activity without addition of a test reagent (0%).

Row | SMILES | IC50 [1] | ATP content (%, 30 μM) [2] | Caspase-3/7 activity (%, 30 μM) [3]
1 | CNCc1cc(-c2cccnc2F)n(S(=O)(=O)c2ccccc2)c1.O=C(O)/C=C/C(=O)O [Example 1, 1-[5-(2-fluoropyridin-3-yl)-1-(phenylsulfonyl)-1H-pyrrol-3-yl]-N-methylmethanamine fumarate] | 26 nM | 88.1% | −1.3%
2 | CNCc1cc(-c2cccnc2F)n(S(=O)(=O)c2ccco2)c1.O=C(O)/C=C/C(=O)O [Example 3, 1-[5-(2-fluoropyridin-3-yl)-1-(2-furylsulfonyl)-1H-pyrrol-3-yl]-N-methylmethanamine fumarate] | 59 nM | 91.4% | −0.5%
3 | CNCc1cn(S(=O)(=O)c2cccnc2)c(-c2cccnc2F)c1F.O=C(O)/C=C/C(=O)O [Example 8, 1-[4-fluoro-5-(2-fluoropyridin-3-yl)-1-(pyridin-3-ylsulfonyl)-1H-pyrrol-3-yl]-N-methylmethanamine fumarate] | 90 nM | 103.9% | 0.2%
4 | CNCc1cc(-c2ccc(C)nc2F)n(S(=O)(=O)c2cccnc2)c1.O=C(O)/C=C/C(=O)O [Example 13, 1-[5-(2-fluoro-6-methylpyridin-3-yl)-1-(pyridin-3-ylsulfonyl)-1H-pyrrol-3-yl]-N-methylmethanamine fumarate] | 120 nM | 87.7% | 0.2%
5 | CNCc1cc(-c2cccnc2Cl)n(S(=O)(=O)c2ccccc2)c1.Cl [Example 15, 1-[5-(2-chloropyridin-3-yl)-1-(phenylsulfonyl)-1H-pyrrol-3-yl]-N-methylmethanamine hydrochloride] | 43 nM | 90.4% | −0.8%
6 | CNCc1cc(-c2cccnc2C#N)n(S(=O)(=O)c2ccccc2)c1.Cl [Example 16, 3-{4-[(methylamino)methyl]-1-(phenylsulfonyl)-1H-pyrrol-2-yl}pyridine-2-carbonitrile hydrochloride] | 120 nM | 97.1% | 0%
7 | CNCc1cc(-c2cccnc2F)n(S(=O)(=O)c2ccc(F)cc2)c1.O=C(O)/C=C/C(=O)O [Example 20, 1-{1-[(4-fluorophenyl)sulfonyl]-5-(2-fluoropyridin-3-yl)-1H-pyrrol-3-yl}-N-methylmethanamine fumarate] | 57 nM | 86.6% | −0.2%
8 | CNCc1cn(S(=O)(=O)c2ccccc2)c(-c2cccnc2F)c1C.Cl [Example 26, 1-[5-(2-fluoropyridin-3-yl)-4-methyl-1-(phenylsulfonyl)-1H-pyrrol-3-yl]-N-methylmethanamine hydrochloride] | 110 nM | 85.2% | −0.2%
9 | CNCc1cn(S(=O)(=O)c2cccnc2)c(-c2cccnc2F)c1F [Example 28, 1-[4-fluoro-5-(2-fluoropyridin-3-yl)-1-(pyridin-3-ylsulfonyl)-1H-pyrrol-3-yl]-N-methylmethanamine 0.5 fumarate] | 71 nM | – | –
10 | CNCc1cn(S(=O)(=O)c2ccccc2)c(-c2cccnc2F)c1F [Example 30, 1-[4-fluoro-5-(2-fluoropyridin-3-yl)-1-(phenylsulfonyl)-1H-pyrrol-3-yl]-N-methylmethanamine 0.5 fumarate] | 26 nM | 97.3% | −0.6%
11 | CNCc1cn(S(=O)(=O)c2cccnc2)c(-c2cccnc2Cl)c1F.O=C(O)/C=C/C(=O)O [Example 38, 1-[5-(2-chloropyridin-3-yl)-4-fluoro-1-(pyridin-3-ylsulfonyl)-1H-pyrrol-3-yl]-N-methylmethanamine fumarate] | 130 nM | 93.4% | −0.4%
12 | CNCc1cn(S(=O)(=O)c2cccc(CO)c2)c(-c2cccnc2F)c1F [Example 48, [3-({3-fluoro-2-(2-fluoropyridin-3-yl)-4-[(methylamino)methyl]-1H-pyrrol-1-yl}sulfonyl)phenyl]methanol 0.5 fumarate] | 130 nM | 92.7% | −0.8%
13 | CNCc1cn(S(=O)(=O)c2ccoc2)c(-c2cccnc2F)c1F.Cl [Example 50, 1-[4-fluoro-5-(2-fluoropyridin-3-yl)-1-(3-furylsulfonyl)-1H-pyrrol-3-yl]-N-methylmethanamine hydrochloride] | 60 nM | 99.8% | −0.3%
14 | CNCc1cc(-c2cccnc2Cl)n(S(=O)(=O)c2cccc(C#N)c2)c1.O=C(O)/C=C/C(=O)O [Example 54, 3-({2-(2-chloropyridin-3-yl)-4-[(methylamino)methyl]-1H-pyrrol-1-yl}sulfonyl)benzonitrile fumarate] | 65 nM | 96.8% | −0.4%
15 | CNCc1cn(S(=O)(=O)c2cnn(C)c2)c(-c2cccnc2F)c1Cl.O=C(O)/C=C/C(=O)O [Example 58, 1-{4-chloro-5-(2-fluoropyridin-3-yl)-1-[(1-methyl-1H-pyrazol-4-yl)sulfonyl]-1H-pyrrol-3-yl}-N-methylmethanamine fumarate] | 300 nM | 98.0% | −1.9%
16 | CNCc1cn(S(=O)(=O)c2ccc(CO)o2)c(-c2cccnc2F)c1F [Example 64, [5-({3-fluoro-2-(2-fluoropyridin-3-yl)-4-[(methylamino)methyl]-1H-pyrrol-1-yl}sulfonyl)-2-furyl]methanol 0.5 fumarate] | 190 nM | 102.2% | −0.1%
17 | CNCc1cn(S(=O)(=O)c2ccc(CF)o2)c(-c2cccnc2F)c1F.O=C(O)/C=C/C(=O)O [Example 66, 1-[4-fluoro-1-{[5-(fluoromethyl)-2-furyl]sulfonyl}-5-(2-fluoropyridin-3-yl)-1H-pyrrol-3-yl]-N-methylmethanamine fumarate] | 140 nM | 94.8% | −0.2%
18 | CNCc1cn(S(=O)(=O)c2ccc(C#N)o2)c(-c2cccnc2F)c1F.O=C(O)/C=C/C(=O)O [Example 68, 5-({3-fluoro-2-(2-fluoropyridin-3-yl)-4-[(methylamino)methyl]-1H-pyrrol-1-yl}sulfonyl)-2-furonitrile fumarate] | 170 nM | 83.4% | 3.6%
19 | CNCc1cn(S(=O)(=O)c2ccoc2C)c(-c2cccnc2F)c1F.Cl [Example 72, 1-{4-fluoro-5-(2-fluoropyridin-3-yl)-1-[(2-methylfuran-3-yl)sulfonyl]-1H-pyrrol-3-yl}-N-methylmethanamine hydrochloride] | 93 nM | 88.1% | −0.5%
